According to patent US20150010928A1, “MEANS AND METHODS FOR ASSESSING AN ENDOCRINE DISEASE OR DISORDER” (priority 2012, published 2015):
Where a name gives a salt, the structure may show the parent alone. Marks after values point to notes of the source that are not given here. Each block holds one compound with its values, some of them ahead of it.

Tested on: male rats
Experiment: Plasma metabolite profiling (GC-MS, LC-MS, SPE-LC-MS) in male rats dosed once daily over 28 days (OECD 407)
Assay type: in vivo, rat
Details: for Glucose, ratio versus control / Lysophosphatidylcholine (C20:4), ratio versus control / Threonic acid, ratio versus control: male rats, plasma, low dose
Protocol: Each dose group in the studies consisted of five rats per sex. Additional groups of each 5 male and female animals served as controls. […] All animals of the animal population were kept under the same constant temperature (20-24±3° C.) and the same constant humidity (30-70%). The animals of the animal population were fed ad libitum. The food to be used was essentially free of chemical or microbial contaminants. Drinking water was also offered ad libitum. Accordingly, the water was free of chemical and microbial contaminants as laid down in the European Drinking Water Directive 98/83/EG. The illumination period was 12 hours light followed by 12 hours darkness (12 hours light, from 6:00 to 18:00, and 12 hours darkness, from 18:00 to 6:00). […] The test substances (compounds) in the Tables 1 to 17 below were dosed and administered as described in the Table 18.
In the morning of day 7, 14, and 28, blood was taken from the retroorbital venous plexus from fasted anaesthetized animals. From each animal, 1 ml of blood was collected with EDTA as anticoagulant. The samples were centrifuged for generation of plasma. All plasma samples were covered with a N2 atmosphere and then stored at −80° C. until analysis.
For mass spectrometry-based metabolite profiling analyses plasma samples were extracted and a polar and a non-polar (lipid) fraction was obtained. For GC-MS analysis, the non-polar fraction was treated with methanol under acidic conditions to yield the fatty acid methyl esters. Both fractions were further derivatised with O-methyl-hydroxyamine hydrochloride and pyridine to convert Oxogroups to O-methyloximes and subsequently with a silylating agent before analysis. In LC-MS analysis, both fractions were reconstituted in appropriate solvent mixtures. HPLC was performed by gradient elution on reversed phase separation columns. Mass spectrometric detection which allows target and high sensitivity MRM (Multiple Reaction Monitoring) profiling in parallel to a full screen analysis was applied as described in WO2003073464.
Steroids and their metabolites were measured by online SPE-LC-MS (Solid phase extraction-LC-MS).
Following comprehensive analytical validation steps, the data for each analyte were normalized against data from pool samples. These samples were run in parallel through the whole process to account for process variability. The significance of treatment group values specific for sex, treatmentduration and metabolite was determined by comparing means of the treated groups to the means of the respective untreated control groups using WELCH-test and quantified with treatment ratios versus control and p-values.
The identification of the most important biomarkers per toxicity pattern was done by a ranking of the analytes in the tables below. Therefore the metabolic changes in reference treatments of a given pattern (shown in the table) were compared with changes of the same metabolite in other unrelated treatments. […] The maximum absolute value of the respective TVALUE was taken to indicate the most important metabolite for the pattern.

- Cholesterol (m7, high dose, Table 14b): 0.75
- Choline plasmalogen No 02 (m7, high dose, Table 14b): 0.89
- Lignoceric acid (C24:0) (m7, high dose, Table 14b): 0.7
- Sphingomyelin (d18:1, C16:0) (m7, high dose, Table 14b): 0.68
- Sphingomyelin (d18:2, C16:0) (m7, high dose, Table 14b): 0.74
- erythro-Sphingosine (d18:1) (m7, high dose, Table 14b): 0.62
- Cholesterol (m14, high dose, Table 14b): 0.72
- Choline plasmalogen No 02 (m14, high dose, Table 14b): 0.68
- Lignoceric acid (C24:0) (m14, high dose, Table 14b): 0.68
- Sphingomyelin (d18:1, C16:0) (m14, high dose, Table 14b): 0.71
- Sphingomyelin (d18:2, C16:0) (m14, high dose, Table 14b): 0.73
- erythro-Sphingosine (d18:1) (m14, high dose, Table 14b): 0.58
- Cholesterol (m28, high dose, Table 14b): 0.69
- Choline plasmalogen No 02 (m28, high dose, Table 14b): 0.74
- Lignoceric acid (C24:0) (m28, high dose, Table 14b): 0.67
- Sphingomyelin (d18:1, C16:0) (m28, high dose, Table 14b): 0.7
- Sphingomyelin (d18:2, C16:0) (m28, high dose, Table 14b): 0.63
- erythro-Sphingosine (d18:1) (m28, high dose, Table 14b): 0.52
Compound: OCCNCCO [Diethanolamine]

Compound: OC(c1ccc(Cl)cc1)(c1cncnc1)c1ccccc1Cl (stereo not drawn) [Fenarimol]
- Glucose, ratio versus control (day 7): 0.9
- Lysophosphatidylcholine (C20:4), ratio versus control (day 7): 0.99
- Threonic acid, ratio versus control (day 7): 1.37 *
- Glucose, ratio versus control (day 14): 0.9 *
- Lysophosphatidylcholine (C20:4), ratio versus control (day 14): 0.96 *
- Threonic acid, ratio versus control (day 14): 1.3 *
- Glucose, ratio versus control (day 28): 0.91 *
- Lysophosphatidylcholine (C20:4), ratio versus control (day 28): 0.97 *
- Threonic acid, ratio versus control (day 28): 1.34 *

- 3-O-Methylsphingosine (d18:1) (m7, high dose, Table 10a): 1.33
- 5-O-Methylsphingosine (d18:1) (m7, high dose, Table 10a): 1.43
- Cysteine (m7, high dose, Table 10a): 1.81 *
- Lignoceric acid (C24:0) (m7, high dose, Table 10a): 1.33
- Nervonic acid (C24:cis[15]1) (m7, high dose, Table 10a): 1.37
- Oleic acid (C18:cis[9]1) (m7, high dose, Table 10a): 0.83
- Stearic acid (C18:0) (m7, high dose, Table 10a): 1.21
- alpha-Tocopherol (m7, high dose, Table 10a): 1.37
- threo-Sphingosine (d18:1) (m7, high dose, Table 10a): 1.2
- Oleic acid (C18:cis[9]1) (m7, high dose, Table 10b): 0.83^
- Phosphatidylcholine (C16:0, C16:0) (m7, high dose, Table 10b): 0.99^
- Thyroxine (T4) (m7, high dose, Table 10b): 0.42 *
- trans-4-Hydroxyproline (m7, high dose, Table 10b): 0.87 *
- 3-O-Methylsphingosine (d18:1) (m14, high dose, Table 10a): 1.43^
- 5-O-Methylsphingosine (d18:1) (m14, high dose, Table 10a): 1.67 *
- Cysteine (m14, high dose, Table 10a): 2.03 *
- Oleic acid (C18:cis[9]1) (m14, high dose, Table 10a): 0.88^
- Stearic acid (C18:0) (m14, high dose, Table 10a): 1.2
- alpha-Tocopherol (m14, high dose, Table 10a): 1.64 *
- threo-Sphingosine (d18:1) (m14, high dose, Table 10a): 1.45 *
- Oleic acid (C18:cis[9]1) (m14, high dose, Table 10b): 0.88 *
- Thyroxine (T4) (m14, high dose, Table 10b): 0.59^
- trans-4-Hydroxyproline (m14, high dose, Table 10b): 0.83 *
- 3-O-Methylsphingosine (d18:1) (m28, high dose, Table 10a): 2.23 *
- 5-O-Methylsphingosine (d18:1) (m28, high dose, Table 10a): 2.39 *
- Lignoceric acid (C24:0) (m28, high dose, Table 10a): 1.79 *
- Nervonic acid (C24:cis[15]1) (m28, high dose, Table 10a): 1.57 *
- Oleic acid (C18:cis[9]1) (m28, high dose, Table 10a): 0.98^
- Stearic acid (C18:0) (m28, high dose, Table 10a): 1.42 *
- alpha-Tocopherol (m28, high dose, Table 10a): 1.74 *
- threo-Sphingosine (d18:1) (m28, high dose, Table 10a): 2.2 *
- Oleic acid (C18:cis[9]1) (m28, high dose, Table 10b): 0.98
- Phosphatidylcholine (C16:0, C16:0) (m28, high dose, Table 10b): 0.99
- Thyroxine (T4) (m28, high dose, Table 10b): 0.72
- trans-4-Hydroxyproline (m28, high dose, Table 10b): 0.72 *
- Cysteine (rat, in vivo): 1.37 *
- Lignoceric acid (C24:0) (rat, in vivo): 1.35^
- Nervonic acid (C24:cis[15]1) (rat, in vivo): 1.68^
- Phosphatidylcholine (C16:0, C16:0) (rat, in vivo): 1.03^
Compound: CNCCC(Oc1ccc(C(F)(F)F)cc1)c1ccccc1 (stereo not drawn) [Fluoxetine hydrochloride]
